Experimental data published in the NIST ThermoML archive (doi:10.1016/j.jct.2017.01.016).

Experiment: xn = mol fraction of the nth substance listed
Details: 101 kPa, Liquid; for viscosity: Capillary tube (Ostwald / Ubbelohde) method; for speed of sound: Frequency=3 MHz, Linear variable-path acoustic interferometer

Cc1cccc(C)c1 [1,3-dimethylbenzene] + C1COCCO1
Details | speed of sound [m/s] | viscosity [mPa·s]
293.15 K, x2 = 0 | 1346.7 | 0.6184
293.15 K, x2 = 0.0938 | 1341.2 | 0.674
293.15 K, x2 = 0.1532 | 1338.2 | 0.7104
293.15 K, x2 = 0.2046 | 1335.9 | 0.7427
293.15 K, x2 = 0.2698 | 1333.4 | 0.7843
293.15 K, x2 = 0.3374 | 1331.4 | 0.8284
293.15 K, x2 = 0.4002 | 1330.1 | 0.8702
293.15 K, x2 = 0.4714 | 1329.3 | 0.9186
293.15 K, x2 = 0.5487 | 1329.6 | 0.9721
293.15 K, x2 = 0.63 | 1331.2 | 1.03
293.15 K, x2 = 0.7182 | 1335 | 1.093
293.15 K, x2 = 0.8035 | 1341 | 1.156
293.15 K, x2 = 0.8708 | 1347.8 | 1.207
293.15 K, x2 = 0.9324 | 1355.8 | 1.254
298.15 K, x2 = 0 | 1323.6 | 0.584
298.15 K, x2 = 0.0938 | 1318.3 | 0.633
298.15 K, x2 = 0.1532 | 1315.4 | 0.6651
298.15 K, x2 = 0.2046 | 1313.2 | 0.6934
298.15 K, x2 = 0.2698 | 1310.8 | 0.7303
298.15 K, x2 = 0.3374 | 1308.8 | 0.7694
298.15 K, x2 = 0.4002 | 1307.6 | 0.8064
298.15 K, x2 = 0.4714 | 1307 | 0.8493
298.15 K, x2 = 0.5487 | 1307.3 | 0.8968
298.15 K, x2 = 0.63 | 1309.1 | 0.948
298.15 K, x2 = 0.7182 | 1312.9 | 1.005
298.15 K, x2 = 0.8035 | 1318.8 | 1.061
298.15 K, x2 = 0.8708 | 1325.5 | 1.106
298.15 K, x2 = 0.9324 | 1333.5 | 1.148
303.15 K, x2 = 0 | 1302.4 | 0.5517
303.15 K, x2 = 0.0938 | 1297.2 | 0.5953
303.15 K, x2 = 0.1532 | 1294.4 | 0.6236
303.15 K, x2 = 0.2046 | 1292.2 | 0.6487
303.15 K, x2 = 0.2698 | 1289.8 | 0.6811
303.15 K, x2 = 0.3374 | 1287.9 | 0.7159
303.15 K, x2 = 0.4002 | 1286.6 | 0.7488
303.15 K, x2 = 0.4714 | 1286 | 0.787
303.15 K, x2 = 0.5487 | 1286.3 | 0.8293
303.15 K, x2 = 0.63 | 1288.1 | 0.875
303.15 K, x2 = 0.7182 | 1291.9 | 0.9258
303.15 K, x2 = 0.8035 | 1297.7 | 0.976
303.15 K, x2 = 0.8708 | 1304.4 | 1.016
303.15 K, x2 = 0.9324 | 1312.2 | 1.054
308.15 K, x2 = 0 | 1282.3 | 0.5229
308.15 K, x2 = 0.0938 | 1277.1 | 0.5621
308.15 K, x2 = 0.1532 | 1274.3 | 0.5875
308.15 K, x2 = 0.2046 | 1272.1 | 0.6101
308.15 K, x2 = 0.2698 | 1269.7 | 0.6392
308.15 K, x2 = 0.3374 | 1267.8 | 0.6706
308.15 K, x2 = 0.4002 | 1266.5 | 0.7002
308.15 K, x2 = 0.4714 | 1265.8 | 0.7347
308.15 K, x2 = 0.5487 | 1266 | 0.773
308.15 K, x2 = 0.63 | 1267.7 | 0.8144
308.15 K, x2 = 0.7182 | 1271.2 | 0.8604
308.15 K, x2 = 0.8035 | 1276.9 | 0.9061
308.15 K, x2 = 0.8708 | 1283.2 | 0.943
308.15 K, x2 = 0.9324 | 1290.7 | 0.9769
313.15 K, x2 = 0 | 1262.3 | 0.4938
313.15 K, x2 = 0.0938 | 1257.2 | 0.5297
313.15 K, x2 = 0.1532 | 1254.3 | 0.553
313.15 K, x2 = 0.2046 | 1252.2 | 0.5737
313.15 K, x2 = 0.2698 | 1249.8 | 0.6005
313.15 K, x2 = 0.3374 | 1247.9 | 0.6291
313.15 K, x2 = 0.4002 | 1246.6 | 0.6563
313.15 K, x2 = 0.4714 | 1245.8 | 0.688
313.15 K, x2 = 0.5487 | 1246 | 0.7231
313.15 K, x2 = 0.63 | 1247.5 | 0.7611
313.15 K, x2 = 0.7182 | 1250.9 | 0.8034
313.15 K, x2 = 0.8035 | 1256.4 | 0.8453
313.15 K, x2 = 0.8708 | 1262.4 | 0.8793
313.15 K, x2 = 0.9324 | 1269.6 | 0.9105
318.15 K, x2 = 0 | 1243 | 0.468
318.15 K, x2 = 0.0938 | 1237.9 | 0.501
318.15 K, x2 = 0.1532 | 1235.1 | 0.5226
318.15 K, x2 = 0.2046 | 1232.9 | 0.5416
318.15 K, x2 = 0.2698 | 1230.5 | 0.5665
318.15 K, x2 = 0.3374 | 1228.5 | 0.5928
318.15 K, x2 = 0.4002 | 1227.2 | 0.6178
318.15 K, x2 = 0.4714 | 1226.4 | 0.647
318.15 K, x2 = 0.5487 | 1226.5 | 0.6794
318.15 K, x2 = 0.63 | 1227.9 | 0.7144
318.15 K, x2 = 0.7182 | 1231.1 | 0.7535
318.15 K, x2 = 0.8035 | 1236.2 | 0.7922
318.15 K, x2 = 0.8708 | 1242 | 0.8232
318.15 K, x2 = 0.9324 | 1248.9 | 0.852

Cc1ccc(C)cc1 [1,4-dimethylbenzene] + C1COCCO1
Details | speed of sound [m/s] | viscosity [mPa·s]
293.15 K, x2 = 0 | 1328.4 | 0.6505
293.15 K, x2 = 0.0716 | 1326.1 | 0.6921
293.15 K, x2 = 0.1445 | 1324.1 | 0.7358
293.15 K, x2 = 0.2132 | 1322.7 | 0.7779
293.15 K, x2 = 0.2871 | 1321.7 | 0.8239
293.15 K, x2 = 0.3582 | 1321.3 | 0.8691
293.15 K, x2 = 0.4358 | 1321.6 | 0.9192
293.15 K, x2 = 0.5042 | 1322.7 | 0.964
293.15 K, x2 = 0.5846 | 1325 | 1.018
293.15 K, x2 = 0.6543 | 1328.1 | 1.065
293.15 K, x2 = 0.7249 | 1332.5 | 1.113
293.15 K, x2 = 0.7923 | 1338.1 | 1.159
293.15 K, x2 = 0.8623 | 1345.6 | 1.208
293.15 K, x2 = 0.9311 | 1355.2 | 1.257
298.15 K, x2 = 0 | 1307.4 | 0.6115
298.15 K, x2 = 0.0716 | 1305.1 | 0.6484
298.15 K, x2 = 0.1445 | 1303.2 | 0.6871
298.15 K, x2 = 0.2132 | 1301.9 | 0.7245
298.15 K, x2 = 0.2871 | 1300.9 | 0.7654
298.15 K, x2 = 0.3582 | 1300.5 | 0.8054
298.15 K, x2 = 0.4358 | 1300.8 | 0.8499
298.15 K, x2 = 0.5042 | 1301.8 | 0.8898
298.15 K, x2 = 0.5846 | 1304 | 0.9374
298.15 K, x2 = 0.6543 | 1307 | 0.9792
298.15 K, x2 = 0.7249 | 1311.2 | 1.022
298.15 K, x2 = 0.7923 | 1316.6 | 1.064
298.15 K, x2 = 0.8623 | 1323.9 | 1.107
298.15 K, x2 = 0.9311 | 1333.1 | 1.151
303.15 K, x2 = 0 | 1287.3 | 0.5766
303.15 K, x2 = 0.0716 | 1285.1 | 0.6095
303.15 K, x2 = 0.1445 | 1283.2 | 0.644
303.15 K, x2 = 0.2132 | 1281.9 | 0.677
303.15 K, x2 = 0.2871 | 1280.9 | 0.7133
303.15 K, x2 = 0.3582 | 1280.5 | 0.7488
303.15 K, x2 = 0.4358 | 1280.8 | 0.7884
303.15 K, x2 = 0.5042 | 1281.8 | 0.8239
303.15 K, x2 = 0.5846 | 1283.9 | 0.8663
303.15 K, x2 = 0.6543 | 1286.8 | 0.9037
303.15 K, x2 = 0.7249 | 1290.8 | 0.9422
303.15 K, x2 = 0.7923 | 1296 | 0.9792
303.15 K, x2 = 0.8623 | 1303 | 1.018
303.15 K, x2 = 0.9311 | 1311.9 | 1.057
308.15 K, x2 = 0 | 1267.6 | 0.544
308.15 K, x2 = 0.0716 | 1265.4 | 0.5737
308.15 K, x2 = 0.1445 | 1263.6 | 0.605
308.15 K, x2 = 0.2132 | 1262.2 | 0.635
308.15 K, x2 = 0.2871 | 1261.2 | 0.6677
308.15 K, x2 = 0.3582 | 1260.8 | 0.6999
308.15 K, x2 = 0.4358 | 1261 | 0.7358
308.15 K, x2 = 0.5042 | 1261.8 | 0.768
308.15 K, x2 = 0.5846 | 1263.8 | 0.8064
308.15 K, x2 = 0.6543 | 1266.5 | 0.8403
308.15 K, x2 = 0.7249 | 1270.4 | 0.875
308.15 K, x2 = 0.7923 | 1275.4 | 0.9086
308.15 K, x2 = 0.8623 | 1282 | 0.9441
308.15 K, x2 = 0.9311 | 1290.5 | 0.9791
313.15 K, x2 = 0 | 1248.3 | 0.5132
313.15 K, x2 = 0.0716 | 1246.2 | 0.5407
313.15 K, x2 = 0.1445 | 1244.3 | 0.5693
313.15 K, x2 = 0.2132 | 1242.9 | 0.5968
313.15 K, x2 = 0.2871 | 1241.9 | 0.6269
313.15 K, x2 = 0.3582 | 1241.4 | 0.6565
313.15 K, x2 = 0.4358 | 1241.6 | 0.6894
313.15 K, x2 = 0.5042 | 1242.3 | 0.7189
313.15 K, x2 = 0.5846 | 1244.1 | 0.7542
313.15 K, x2 = 0.6543 | 1246.7 | 0.7853
313.15 K, x2 = 0.7249 | 1250.3 | 0.8172
313.15 K, x2 = 0.7923 | 1255 | 0.8479
313.15 K, x2 = 0.8623 | 1261.4 | 0.8802
313.15 K, x2 = 0.9311 | 1269.5 | 0.9126
318.15 K, x2 = 0 | 1229.8 | 0.4862
318.15 K, x2 = 0.0716 | 1227.7 | 0.5116
318.15 K, x2 = 0.1445 | 1225.8 | 0.538
318.15 K, x2 = 0.2132 | 1224.4 | 0.5633
318.15 K, x2 = 0.2871 | 1223.3 | 0.5911
318.15 K, x2 = 0.3582 | 1222.8 | 0.6185
318.15 K, x2 = 0.4358 | 1222.8 | 0.6488
318.15 K, x2 = 0.5042 | 1223.4 | 0.676
318.15 K, x2 = 0.5846 | 1225 | 0.7084
318.15 K, x2 = 0.6543 | 1227.4 | 0.737
318.15 K, x2 = 0.7249 | 1230.8 | 0.7663
318.15 K, x2 = 0.7923 | 1235.2 | 0.7946
318.15 K, x2 = 0.8623 | 1241.3 | 0.8244
318.15 K, x2 = 0.9311 | 1248.9 | 0.854
